Patent US9890166B2, “Imidazopyrrolidine derivatives and their use in the treatment of disease” (NOVARTIS AG, priority 2013, dated 2018)

What was measured:
BRD4 (His-Brd4(44-477)) = BRD4 (His-Brd4(44-477)) (Homo sapiens (Human), UniProt O60885); experiment: TR-FRET in-vitro binding assay for BRD4; settings: single determination or n ≧ 2 independent determinations, read-out: Biochemical IC50 BRD4
In short: (§1)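 TR-FRET binding with His-tagged bromodomain constructs, 8-point compound dilutions from 10 mM DMSO stocks. Reactions incubated 35 min at 30° C in 13.55 μL, read on an EnVision multilabel reader.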

BRD2 (His-Brd2(60-472)) = BRD2 (His-Brd2(60-472)) (Homo sapiens (Human), UniProt P25440); experiment: TR-FRET in-vitro binding assay for BRD2; settings: single determination or n ≧ 2 independent determinations, read-out: Biochemical IC50 BRD2
Chain of BRD2 (His-Brd2(60-472)) (P25440 60-472): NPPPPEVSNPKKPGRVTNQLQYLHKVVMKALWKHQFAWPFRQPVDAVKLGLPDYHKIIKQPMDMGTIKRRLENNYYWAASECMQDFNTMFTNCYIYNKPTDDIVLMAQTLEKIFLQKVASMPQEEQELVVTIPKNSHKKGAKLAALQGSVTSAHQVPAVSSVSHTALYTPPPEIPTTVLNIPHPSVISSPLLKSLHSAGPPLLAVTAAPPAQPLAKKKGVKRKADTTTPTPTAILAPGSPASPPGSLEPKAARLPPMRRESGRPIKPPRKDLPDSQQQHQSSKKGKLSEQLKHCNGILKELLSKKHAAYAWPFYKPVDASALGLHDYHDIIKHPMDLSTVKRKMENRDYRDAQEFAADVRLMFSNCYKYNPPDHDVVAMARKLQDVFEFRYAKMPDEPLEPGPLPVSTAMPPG
In short: as §1

BRD3 (His-Brd3(20-477)) = BRD3 (His-Brd3(20-477)) (Homo sapiens (Human), UniProt Q15059); experiment: TR-FRET in-vitro binding assay for BRD3; settings: single determination or n ≧ 2 independent determinations, read-out: Biochemical IC50 BRD3
Chain of BRD3 (His-Brd3(20-477)) (Q15059 20-477): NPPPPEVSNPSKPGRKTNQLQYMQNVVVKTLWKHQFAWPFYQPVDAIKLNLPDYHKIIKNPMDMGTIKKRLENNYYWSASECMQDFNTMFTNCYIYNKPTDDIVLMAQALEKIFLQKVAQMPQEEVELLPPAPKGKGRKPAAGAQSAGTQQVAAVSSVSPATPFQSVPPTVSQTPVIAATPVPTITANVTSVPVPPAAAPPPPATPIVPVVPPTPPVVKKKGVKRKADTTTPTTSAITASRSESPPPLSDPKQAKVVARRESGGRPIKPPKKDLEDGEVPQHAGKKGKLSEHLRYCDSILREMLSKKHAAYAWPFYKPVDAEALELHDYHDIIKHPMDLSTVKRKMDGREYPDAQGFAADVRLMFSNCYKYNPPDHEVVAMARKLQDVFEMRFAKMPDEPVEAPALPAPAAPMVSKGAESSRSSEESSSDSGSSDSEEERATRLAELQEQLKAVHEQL
In short: as §1

[1] = molecular target: CREBBP bromodomain (His-CREBBP(1081-1197)) (Homo sapiens (Human), UniProt Q92793); experiment: AlphaScreen in-vitro binding assay for CREBBP; settings: single determination or n ≧ 2 independent determinations, read-out: Biochemical IC50 CREBBP
Chain of CREBBP bromodomain (His-CREBBP(1081-1197)) (Q92793 1081-1197): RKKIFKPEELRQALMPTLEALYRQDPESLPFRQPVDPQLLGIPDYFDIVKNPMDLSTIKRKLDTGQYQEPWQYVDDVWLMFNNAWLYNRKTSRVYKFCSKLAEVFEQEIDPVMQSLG
In short: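 Reactions at 30 °C for 35 min, then Ni-chelate acceptor and streptavidin donor beads in HEPES pH 7.5, NaCl, Tween20, BSA, 60 min at room temperature. Eight-point compound series; IC50 by non-linear regression of percent inhibition.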

THP-1 cells = experiment: Cell growth inhibition assay (CellTiter-Glo), THP-1; settings: for GI50: Homo sapiens, THP-1, read-out: THP-1 GI50; for THP-1 TGI: THP-1 cells, total growth inhibition, CellTiter-Glo;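 for all read-outs here: viability read as cellular ATP luminescence after 4 days, 3-fold dilution series from 10 µM, DMSO vehicle-treated cells taken as 100%, cell-free medium wells as −100%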
K-562 cells = experiment: Cell growth inhibition assay (CellTiter-Glo), K-562; settings: for GI50: Homo sapiens, K562, read-out: K-562 GI50; for K-562 TGI: K-562 cells, total growth inhibition, CellTiter-Glo;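 for all read-outs here: cellular ATP measured by luminescence after 4 days of exposure, 3-fold dilution series from 10 µM, DMSO vehicle-treated cells define 100%, cell-free medium wells −100%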
MV-4-11 cells = experiment: Cell growth inhibition assay (CellTiter-Glo), MV-4-11; settings: for GI50: Homo sapiens, MV4-11, read-out: MV-4-11 GI50; for MV-4-11 TGI: MV-4-11 cells, total growth inhibition, CellTiter-Glo;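 for all read-outs here: cellular ATP luminescence after 4 days, 3-fold dilution series from 10 µM top dose, vehicle (0.1% DMSO) set to 100%, cell-free medium set to −100%, day 0 corrected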

| Structure (SMILES) | IC50 (BRD4 (His-Brd4(44-477))) | IC50 (BRD2 (His-Brd2(60-472))) | IC50 (BRD3 (His-Brd3(20-477))) | IC50 [1] | GI50 (THP-1 cells) | THP-1 TGI (THP-1 cells) | GI50 (K-562 cells) | K-562 TGI (K-562 cells) | GI50 (MV-4-11 cells) | MV-4-11 TGI (MV-4-11 cells) |
| --- | --- | --- | --- | --- | --- | --- | --- | --- | --- | --- |
| Cc1cc(N2C(=O)c3nc(C4=CCOCC4)n(C(C)C)c3[C@H]2c2ccc(Cl)cc2)cn2c(C)nnc12 [Example 84, (R)-6-(4-chlorophenyl)-2-(3,6-dihydro-2H-pyran-4-yl)-5-(3,8-dimethyl-[1,2,4]triazolo[4,3-a]pyridin-6-yl)-1-isopropyl-5,6-dihydropyrrolo[3,4-d]imidazol-4(1H)-one] | 18 nM | 36 nM | 24 nM | 3500 nM | 44 nM | 99.8 nM | 73.2 nM | >10000 nM | 14.6 nM | 29.4 nM |
| COc1ccc(-c2nc3c(n2C(C)C)C(c2ccc(Cl)cc2)N(c2cc(C)c4nnn(C)c4c2)C3=O)cn1 (stereo not shown) [Example 83, 6-(4-chlorophenyl)-5-(1,4-dimethyl-1H-benzo[d][1,2,3]triazol-6-yl)-1-isopropyl-2-(6-methoxypyridin-3-yl)-5,6-dihydropyrrolo[3,4-d]imidazol-4(1H)-one] | 24 nM | 65 nM | 30 nM | > 37000 nM | 27.1 nM | 72.2 nM | 105 nM | >10000 nM | 23.9 nM | 46.4 nM |
| COc1cc(N2C(=O)c3nc(C4CCN(C)CC4)n(C(C)C)c3C2c2ccc(Cl)cc2)cc2c1nnn2C (stereo not shown) [Example 97] | 23.5 nM | 58 nM | 35.5 nM | 15600 nM | 148 nM | 432 nM | 596 nM | >10000 nM | 38.4 nM | 90.2 nM |
| COc1ccc(-c2nc3c([nH]2)C(c2ccc(Cl)cc2)N(c2cc(C)c4nnc(C(F)F)n4c2)C3=O)cn1 (stereo not shown) [Example 141, 6-(4-chlorophenyl)-5-(3-(difluoromethyl)-8-methyl-[1,2,4]triazolo[4,3-a]pyridin-6-yl)-2-(6-methoxypyridin-3-yl)-5,6-dihydropyrrolo[3,4-d]imidazol-4(1H)-one] | 23.5 nM | 47 nM | 21 nM | > 37000 nM | 77 nM | 179 nM | 202 nM | >10000 nM | 73.2 nM | 111.5 nM |
| COc1ncc(-c2nc3c(n2C(C)C)C(c2ccc(Cl)cc2)N(c2cc(C)c4nnc(C(F)F)n4c2)C3=O)c(OC)n1 (stereo not shown) [Example 143, 6-(4-chlorophenyl)-5-(3-(difluoromethyl)-8-methyl-[1,2,4]triazolo[4,3-a]pyridin-6-yl)-2-(2,4-dimethoxypyrimidin-5-yl)-1-isopropyl-5,6-dihydropyrrolo[3,4-d]imidazol-4(1H)-one] | 19 nM | 34 nM | 18 nM | > 37000 nM | 11.3 nM | 30.65 nM | 44 nM | >10000 nM | 9.19 nM | 16.1 nM |
| COc1ccc(-c2nc3c([nH]2)[C@@H](c2ccc(Cl)cc2)N(c2cc(C)c4nnc(C)n4c2)C3=O)cn1 [Example 129, (R)-6-(4-chlorophenyl)-5-(3,8-dimethyl-[1,2,4]triazolo[4,3-a]pyridin-6-yl)-2-(6-methoxypyridin-3-yl)-5,6-dihydropyrrolo[3,4-d]imidazol-4(1H)-one] | 1840 nM | 4700 nM | 2320 nM | > 37000 nM | 662 nM | 1080 nM | 1070 nM | >10000 nM | 209 nM | 343 nM |
| COc1ccc(-c2nc3c(n2C(C)C)[C@@H](c2ccc(Cl)cc2)N(c2cc(C)c4nnn(C)c4n2)C3=O)cn1 [Example 154, (R)-6-(4-chlorophenyl)-5-(3,7-dimethyl-3H-[1,2,3]triazolo[4,5-b]pyridin-5-yl)-1-isopropyl-2-(6-methoxypyridin-3-yl)-5,6-dihydropyrrolo[3,4-d]imidazol-4(1H)-one] | 19 nM | 42 nM | 19 nM | > 37000 nM | 4.68 nM | 12.2 nM | 21.4 nM | >10000 nM | 3.64 nM | 8.305 nM |
